Measured values from patent publication US9440957B2, “Compounds and compositions for modulating EGFR Activity” (Novartis AG, priority 2012, dated 2016).
Where two headings read alike, the source gives them in different places.

How the values were obtained:
HaCaT (EGFR WT) = HaCaT (EGFR WT) (Homo sapiens, UniProt P00533); assay: EGFR target modulation in HaCaT (EGFR-WT) cell line (phospho-EGFR Y1173 ELISA); assay type: cell-based; conditions: value in parentheses
Description: EGFR Target Modulation in HaCaT (EGFR-WT) Cell Line Tissue Culture. […] The serial diluted compounds were transferred to the plate containing cells by using a 50 nl Pin Head device (Perkin Elmer) and the cells were placed back in the incubator for 3 hours. […] Phospho-EGFR ([…]) ELISA. Solid white high-binding ELISA plates (Greiner #781074) were coated with 5 ug/ml anti-EGFR capture antibody (R&D Systems #AF231) overnight in 50 mM carbonate/bicarbonate pH 9.5 buffer. […] Wash steps were carried out with a Bio-Tek ELx405 SelectTM using 4 cycles of 100 ul TBS-T (20 mM Tris, 137 mM NaCl, 0.05% Tween-20) per well. […] Lysis was allowed to occur for 20 minutes on ice. A 25 ul aliquot was added to each well of the blocked ELISA plate and incubated overnight at 4° C. with gentle shaking. […] After washing, 1:2,000 anti-rabbit-HRP (Cell Signaling #7074) in 0.2% BSA/TBS-T was added and incubated for 1 hour at room temperature. Chemiluminescent detection was carried out with SuperSignal ELISA Pico substrate (ThermoScientific #37069). Signal was read on EnVision plate reader using built-in UltraLUM setting. Data Analysis. Control cells treated with EGF were set to 100% maximum response. […] With these parameters, the IC50's for each compound in each cell line was calculated using non-linear curve fitting analysis.

HCC827 (Del E746-A750) = HCC827 (Del E746-A750) (Homo sapiens, UniProt P00533, DEL746-750); assay: EGFR target modulation in HCC827 cell line (phospho-EGFR Y1173 ELISA); assay type: cell-based
Method in brief: (§1)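 Cells grown in 10% FBS/RPMI, plated overnight at 37 °C, then treated with serially diluted compounds for 3 h. Lysates were analysed by sandwich ELISA (anti-EGFR capture, chemiluminescent readout).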

EGFR(L858R/T790M) = target: T1, EGFR(L858R/T790M) (Homo sapiens, UniProt P00533, L858R/T790M); assay: EGFR biochemical assay (HTRF), IC50 determinations
T1 construct: purchased from Carna (GST-a.a. 669-1210)
Method in brief: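 Two formats were run: compound preincubated at room temperature with enzyme and biotin-TK peptide before ATP starts the reaction, or no preincubation with enzyme added last. Reactions ran 60 min at room temperature and were stopped with EDTA. Phosphopeptide was read by HTRF (PT66K/SAXL, 1 h).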

H3255 (EGFR L858R) = H3255 (EGFR L858R) (Homo sapiens, UniProt P00533, L858R); assay: EGFR target modulation in H3255 cell line (phospho-EGFR Y1173 ELISA); assay type: cell-based
Method in brief: as §1

HEKn (EGFR WT) = HEKn (EGFR WT) (Homo sapiens, UniProt P00533); assay: EGFR target modulation in HEKn (EGFR-WT) cell line (phospho-EGFR Y1173 ELISA); assay type: cell-based; conditions: value outside parentheses
Method in brief: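 Read-out was Y1173 phosphorylation, measured by chemiluminescent ELISA with anti-EGFR capture of lysates. HEKn keratinocytes (wild-type EGFR) were treated with compound for 3 h.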

H1975 (EGFR L858/T790M) = H1975 (EGFR L858/T790M) (Homo sapiens, UniProt P00533, L858R/T790M); assay: EGFR target modulation in H1975 cell line (phospho-EGFR Y1173 ELISA); assay type: cell-based
Method in brief: as §1

[1] = EGFR (L858R/T790M) with 90 min pre-incubation, read-out: IC50 (μM) Column B
[2] = EGFR (L858R/T790M) with no pre-incubation, read-out: IC50 (μM) Column A

T1 sequence (P00533 669-1210 T790M/L858R): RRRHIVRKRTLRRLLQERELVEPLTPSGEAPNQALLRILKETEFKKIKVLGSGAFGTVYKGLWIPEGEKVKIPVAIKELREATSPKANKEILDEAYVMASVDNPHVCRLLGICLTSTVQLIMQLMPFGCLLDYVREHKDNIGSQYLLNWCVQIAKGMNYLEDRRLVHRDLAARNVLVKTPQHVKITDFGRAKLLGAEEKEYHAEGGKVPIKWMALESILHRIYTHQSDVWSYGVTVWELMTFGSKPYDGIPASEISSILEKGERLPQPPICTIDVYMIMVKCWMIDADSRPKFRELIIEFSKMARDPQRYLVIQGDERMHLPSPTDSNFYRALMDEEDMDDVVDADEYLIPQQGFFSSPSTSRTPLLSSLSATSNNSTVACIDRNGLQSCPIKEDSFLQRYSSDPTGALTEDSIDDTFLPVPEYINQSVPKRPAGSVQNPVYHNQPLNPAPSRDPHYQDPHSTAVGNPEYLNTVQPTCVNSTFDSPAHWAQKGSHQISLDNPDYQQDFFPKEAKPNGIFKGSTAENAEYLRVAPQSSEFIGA
Sequence of H3255 (EGFR L858R) (P00533 25-1210 L858R): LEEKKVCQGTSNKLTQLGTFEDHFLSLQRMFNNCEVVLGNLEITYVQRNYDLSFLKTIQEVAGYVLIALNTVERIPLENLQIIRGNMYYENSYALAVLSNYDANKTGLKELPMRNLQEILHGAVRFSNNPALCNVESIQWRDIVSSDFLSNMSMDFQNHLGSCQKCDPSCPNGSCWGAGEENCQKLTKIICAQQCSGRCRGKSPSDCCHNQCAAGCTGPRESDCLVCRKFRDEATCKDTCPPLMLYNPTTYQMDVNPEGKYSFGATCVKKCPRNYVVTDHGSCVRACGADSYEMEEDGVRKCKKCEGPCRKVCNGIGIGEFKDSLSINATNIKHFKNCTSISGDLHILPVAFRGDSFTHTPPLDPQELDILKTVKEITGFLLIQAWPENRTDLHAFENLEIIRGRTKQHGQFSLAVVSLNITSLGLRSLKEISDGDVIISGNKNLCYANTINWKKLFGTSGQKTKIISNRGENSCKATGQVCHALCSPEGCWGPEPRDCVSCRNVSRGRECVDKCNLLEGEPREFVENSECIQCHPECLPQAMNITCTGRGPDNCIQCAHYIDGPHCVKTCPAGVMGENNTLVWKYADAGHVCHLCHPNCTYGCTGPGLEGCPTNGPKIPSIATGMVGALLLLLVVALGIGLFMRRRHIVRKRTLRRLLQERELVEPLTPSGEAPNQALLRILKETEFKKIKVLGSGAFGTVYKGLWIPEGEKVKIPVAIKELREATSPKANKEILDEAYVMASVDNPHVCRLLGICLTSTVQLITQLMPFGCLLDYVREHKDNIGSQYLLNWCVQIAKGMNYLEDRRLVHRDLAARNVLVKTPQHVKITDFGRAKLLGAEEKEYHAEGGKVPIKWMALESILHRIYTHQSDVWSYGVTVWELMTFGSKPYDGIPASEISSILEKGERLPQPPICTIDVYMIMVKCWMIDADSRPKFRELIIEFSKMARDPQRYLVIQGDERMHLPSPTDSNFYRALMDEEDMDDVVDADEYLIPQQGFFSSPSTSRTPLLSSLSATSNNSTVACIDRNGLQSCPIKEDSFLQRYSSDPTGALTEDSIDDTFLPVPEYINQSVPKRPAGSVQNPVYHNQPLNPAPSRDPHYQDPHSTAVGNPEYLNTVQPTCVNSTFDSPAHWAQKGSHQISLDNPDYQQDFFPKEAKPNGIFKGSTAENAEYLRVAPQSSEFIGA
Sequence of HCC827 (Del E746-A750) (P00533 with tags, fused parts or gaps DEL746-750): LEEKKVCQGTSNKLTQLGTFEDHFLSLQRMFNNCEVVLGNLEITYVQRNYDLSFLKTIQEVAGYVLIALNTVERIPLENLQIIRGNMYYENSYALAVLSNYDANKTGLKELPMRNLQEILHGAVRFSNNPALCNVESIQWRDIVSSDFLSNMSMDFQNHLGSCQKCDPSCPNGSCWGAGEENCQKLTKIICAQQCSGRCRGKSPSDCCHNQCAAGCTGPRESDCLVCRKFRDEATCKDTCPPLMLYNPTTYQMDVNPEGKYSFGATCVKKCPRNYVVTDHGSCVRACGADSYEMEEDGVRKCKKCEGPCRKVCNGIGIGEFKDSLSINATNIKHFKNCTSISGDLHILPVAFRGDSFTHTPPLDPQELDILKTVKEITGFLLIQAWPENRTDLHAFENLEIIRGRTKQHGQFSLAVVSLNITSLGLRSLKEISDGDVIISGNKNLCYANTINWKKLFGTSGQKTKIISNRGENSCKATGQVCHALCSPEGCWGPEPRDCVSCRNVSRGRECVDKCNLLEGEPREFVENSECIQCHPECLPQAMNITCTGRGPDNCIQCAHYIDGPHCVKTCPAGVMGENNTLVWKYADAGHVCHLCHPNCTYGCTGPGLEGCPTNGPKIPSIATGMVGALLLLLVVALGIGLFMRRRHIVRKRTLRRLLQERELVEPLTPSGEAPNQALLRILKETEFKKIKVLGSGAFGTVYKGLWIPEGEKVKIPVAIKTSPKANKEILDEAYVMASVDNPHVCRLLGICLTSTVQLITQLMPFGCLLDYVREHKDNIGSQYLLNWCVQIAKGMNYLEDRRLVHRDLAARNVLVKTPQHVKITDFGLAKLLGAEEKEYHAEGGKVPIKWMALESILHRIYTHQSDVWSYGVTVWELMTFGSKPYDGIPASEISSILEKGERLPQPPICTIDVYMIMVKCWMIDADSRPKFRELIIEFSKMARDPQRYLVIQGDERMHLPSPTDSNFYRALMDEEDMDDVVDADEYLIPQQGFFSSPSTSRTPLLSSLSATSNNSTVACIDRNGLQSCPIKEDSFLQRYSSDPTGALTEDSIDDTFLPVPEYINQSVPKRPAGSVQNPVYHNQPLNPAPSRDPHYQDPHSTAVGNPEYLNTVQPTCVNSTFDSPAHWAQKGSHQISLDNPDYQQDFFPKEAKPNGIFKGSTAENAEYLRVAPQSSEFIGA
Sequence of H1975 (EGFR L858/T790M) (P00533 25-1210 T790M/L858R): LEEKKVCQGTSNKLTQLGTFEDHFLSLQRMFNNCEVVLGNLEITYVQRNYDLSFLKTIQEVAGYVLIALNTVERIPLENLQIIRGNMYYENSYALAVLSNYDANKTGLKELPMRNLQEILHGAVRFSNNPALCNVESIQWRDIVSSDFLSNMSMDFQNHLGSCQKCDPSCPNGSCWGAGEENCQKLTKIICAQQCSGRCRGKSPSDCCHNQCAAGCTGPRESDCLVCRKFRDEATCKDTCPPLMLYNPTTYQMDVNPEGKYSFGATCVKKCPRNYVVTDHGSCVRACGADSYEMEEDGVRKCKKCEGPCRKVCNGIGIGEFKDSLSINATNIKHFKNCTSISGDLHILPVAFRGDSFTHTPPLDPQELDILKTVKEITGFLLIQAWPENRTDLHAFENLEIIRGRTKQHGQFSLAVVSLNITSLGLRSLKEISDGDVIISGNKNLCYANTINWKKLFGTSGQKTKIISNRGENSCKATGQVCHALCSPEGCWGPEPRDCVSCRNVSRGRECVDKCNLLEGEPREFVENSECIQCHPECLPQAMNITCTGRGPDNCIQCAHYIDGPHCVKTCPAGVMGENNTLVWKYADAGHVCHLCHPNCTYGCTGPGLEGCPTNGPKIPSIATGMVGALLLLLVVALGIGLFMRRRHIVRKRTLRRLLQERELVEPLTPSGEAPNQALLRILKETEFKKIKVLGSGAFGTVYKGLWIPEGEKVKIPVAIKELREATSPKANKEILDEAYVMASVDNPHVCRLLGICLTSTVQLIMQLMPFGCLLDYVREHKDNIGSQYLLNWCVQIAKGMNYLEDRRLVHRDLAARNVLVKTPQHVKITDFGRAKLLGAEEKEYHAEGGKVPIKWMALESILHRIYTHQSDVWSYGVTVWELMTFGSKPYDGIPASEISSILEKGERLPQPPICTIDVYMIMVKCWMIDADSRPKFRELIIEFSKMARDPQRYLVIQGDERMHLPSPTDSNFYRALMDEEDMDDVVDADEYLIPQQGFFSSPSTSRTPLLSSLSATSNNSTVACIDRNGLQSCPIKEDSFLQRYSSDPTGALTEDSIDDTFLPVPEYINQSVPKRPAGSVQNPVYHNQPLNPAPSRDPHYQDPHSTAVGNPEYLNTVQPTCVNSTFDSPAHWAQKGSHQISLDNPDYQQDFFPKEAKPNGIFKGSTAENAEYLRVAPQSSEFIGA

IC50 (HaCaT (EGFR WT)) [nM]	IC50 (HCC827 (Del E746-A750)) [nM]	IC50 (EGFR(L858R/T790M); [1]) [µM]	IC50 (EGFR(L858R/T790M); [2]) [µM]	IC50 (H3255 (EGFR L858R)) [nM]	IC50 (HEKn (EGFR WT)) [nM]	IC50 (H1975 (EGFR L858/T790M)) [nM]	SMILES
44	1	< 0.001	0.002	2	44	1	CNC/C=C/C(=O)N1CCCC[C@@H](n2c(NC(=O)c3ccnc(C)c3)nc3cccc(Cl)c32)C1 [Example 17-185]
213	2	< 0.001	0.004	10	291	2	CNC/C=C/C(=O)N1CCCC[C@@H](n2c(NC(=O)c3cc(C)nc(C)c3)nc3cccc(Cl)c32)C1 [Example 17-186]
7120	45	0.007	0.116	181	–	36	C/C=C/C(=O)N1CCCC[C@@H](n2c(NC(=O)c3cc(C)nc(C)c3)nc3ccc(OCCN4CCCC4)c(Cl)c32)C1 [Example 17-195]
